Results as given in patent US9918991B2, “Topical antimicrobial compositions and methods of using same” (Hydromer, Inc., priority 2010, dated 2018).

How the values were obtained:
fungi = assay: Fungi growth inhibition on the hoof (Test Method MCR 3.0 with actual hoof material); type: cell-based; settings: aqueous solution 0.25 to 0.5%
Excerpt: (§1) Comparative Antimicrobial Testing of Example 4 with Cosmetic Dyes According to Test Method MCR 3.0 with Actual Hoof Material

bacteria [1] = assay: Growth / inhibition activity on a hoof surface; type: cell-based; settings: 0.2% alone
bacteria [2] = assay: Bacteria growth inhibition on the hoof (Test Method MCR 3.0 with actual hoof material); type: cell-based; settings: aqueous solution 0.25 to 0.5%
Excerpt: as §1

T. mentagrophytes = assay: Hoof samples submerged, washed to simulate leaching, overlaid with T. mentagrophytes agar; type: cell-based; settings: 10 wt. % solution; hoof submerged 15 seconds, washed two hours, 3 and 6 days
Protocol: (§2) Hoof samples were submerged for 15 seconds in (1) the composition of the invention (i.e., 4:1 of cosmetic dye:Phenoxyethanol, total amount about 0.3 wt. %); (2.1) a 10 wt. % copper sulfate (2.2) a 10 wt. % zinc sulfate solution; (3) untreated as a control. The samples were then washed for two hours to simulate leaching. The samples were then placed into melted PA agar to solidify. Melted agar containing 10E5 CFU/ml of T. mentagrophytes was then added and incubated at room temperature for 3 and 6 days.
as §2, with “antimicrobial” for “cosmetic”, “about 0.21 wt. % or” for “about”, “(2)” for “(2.1)”, “or” for “(2.2) a”, “solution; or” for “solution;”

[3] = Influence of hoof bath contamination by dirt and manure on effectiveness
[4] = tested on: digital dermatitis lesion (DDL); assay: Footbath study in a large commercial dairy farm, digital dermatitis lesions; type: in vivo, cows; settings: study 1; 5% solution, twice weekly; mixed logistic regression
Protocol: The study was conducted in a large commercial dairy farm. […] The adjusted odds of digital dermatitis lesion (DDL) throughout the study period were analyzed by mixed logistic regression model.

[5] = tested on: Arcanobacterium pyogenes (ATCC#9731 and ATCC#19411); assay: MIC Test against Arcanobacterium pyogenes under anaerobic conditions (TOXIKON); type: cell-based
Protocol: MIC Test of example 4 against Arcanobacterium pyogenes (ATCC#9731 and ATCC#19411) under anaerobic conditions were conducted by the TOXIKON.
Under the same conditions as mentioned in Example 5 conducted by TOXIKON the MIC of a 10% copper sulfate solution (commonly used in hoof baths worldwide) was determined.

Cc1cc2nc3ccc(N(C)C)cc3[s+]c2cc1N.[Cl-] [Toluidine Blue]
fungi growth inhibition on the hoof (fungi): 50% | growth on a hoof surface (bacteria [1]): bacterial growth | bacteria growth inhibition on the hoof (bacteria [2]): 80%

CN(C)c1ccc2nc3ccc(=[N+](C)C)cc-3sc2c1 [Methylene Blue]
fungi growth inhibition on the hoof (fungi): 50% | bacteria growth inhibition on the hoof (bacteria [2]): 60%

O=S(=O)([O-])[O-].[Zn+2] [zinc sulfate]
microbial growth (T. mentagrophytes): intense microbial growth

benzalkonium chloride
loses effectiveness after contamination ([3]; at 1% concentration, FIG. 4): ≤ 24 h

CN(C)c1ccc(C(=C2C=CC(=[N+](C)C)C=C2)c2ccc(N(C)C)cc2)cc1.[Cl-] [Gentian Violet, N-[4[Bis[4-(dimethylamino)-phenyl]methylene]-2,5-cyclohexadien-1-ylidene]-N-methyl-methanaminium chloride]
fungi growth inhibition on the hoof (fungi): 80% | bacteria growth inhibition on the hoof (bacteria [2]): 90%

C=O [formalin]
odds of DDL compared with the Dragonhyde group [4]: 1.36 times higher

O=CCCCC=O [glutaraldehyde]
loses effectiveness after contamination ([3]; at 2% concentration, FIG. 3): ≤ 24 h

O=S(=O)([O-])[O-].[Cu+2] [copper sulfate]
MIC (concentration giving about 100% reduction / kill) ([5]; anaerobic conditions, both strains): at least 0.078% | kill rate ([5]; concentration at least 0.078%, both strains): ~100% | required concentration in comparison to a solution according to example 4 ([5]; to control Arcanobacterium pyogenes): at least 8 times | microbial growth (T. mentagrophytes): intense microbial growth | loses effectiveness after contamination ([3]; at 2.5% and 5% concentrations, FIG. 1): ≤ 4 h
